From ChEMBL document CHEMBL1201862, “PubChem BioAssay data set” (2004)
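How tested: cells in 96-well plates exposed to compound for 48 hours at five concentrations. GI50 marks 50% less growth.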 Active and inactive are the calls of the source. No stated cut-off is given here; in the data, active = GI50 up to about 1.1 µM and inactive = higher.

Columns and labels:
Experiment in all cases: growth of human tumour cells (NCI), 48 h
CCRF-CEM = system: CCRF-CEM
COLO 205 = system: COLO 205
DLD-1 = system: DLD-1
NCI-H23 = system: NCI-H23
OVCAR-4 = system: OVCAR-4
OVCAR-5 = system: OVCAR-5
OVCAR-8 = system: OVCAR-8
RPMI-8226 = system: RPMI-8226
SF-539 = system: SF-539
SK-MEL-28 = system: SK-MEL-28
SNB-75 = system: SNB-75
SW-620 = system: SW-620
TK-10 = system: TK-10
UACC-257 = system: UACC-257
A498 = system: A498
EKVX = system: EKVX
DU-145 = system: DU-145
MCF7 = system: MCF7
MDA-MB-435 = system: MDA-MB-435
NCI/ADR-RES = system: NCI/ADR-RES

Row | Structure (SMILES) | GI50 (CCRF-CEM) | GI50 (COLO 205) | GI50 (DLD-1) | GI50 (NCI-H23) | GI50 (OVCAR-4) | GI50 (OVCAR-5) | GI50 (OVCAR-8) | GI50 (RPMI-8226) | GI50 (SF-539) | GI50 (SK-MEL-28) | GI50 (SNB-75) | GI50 (SW-620) | GI50 (TK-10) | GI50 (UACC-257) | GI50 (A498) | GI50 (EKVX) | GI50 (DU-145) | GI50 (MCF7) | GI50 (MDA-MB-435) | GI50 (NCI/ADR-RES)
1 | O=c1cc(-c2ccccc2)[nH]c2cc(Cl)cc(Cl)c12 | > 100 µM (inactive) | > 100 µM (inactive) | > 100 µM (inactive) | 57.7 µM (inactive) | 20.5 µM (inactive) | > 100 µM (inactive) | 26.1 µM (inactive) | > 100 µM (inactive) | 29.5 µM (inactive) | > 100 µM (inactive) | 10.3 µM (inactive) | > 100 µM (inactive) | 46.1 µM (inactive) | > 100 µM (inactive) | – | – | – | – | – | –
2 | N#CNc1nc(C(=O)Nc2ccc(Cl)cc2)cc(-c2ccccc2)n1 | – | – | > 100 µM (inactive) | > 100 µM (inactive) | > 100 µM (inactive) | > 100 µM (inactive) | > 100 µM (inactive) | > 100 µM (inactive) | > 100 µM (inactive) | > 100 µM (inactive) | > 100 µM (inactive) | > 100 µM (inactive) | – | > 100 µM (inactive) | > 100 µM (inactive) | > 100 µM (inactive) | – | – | – | –
3 | Cc1cc(Cl)ccc1NC1=NC(=O)C(CC(=O)Nc2ccc(Cl)cc2Cl)S1 (stereo unspecified) | > 100 µM (inactive) | > 100 µM (inactive) | > 100 µM (inactive) | > 100 µM (inactive) | > 100 µM (inactive) | > 100 µM (inactive) | > 100 µM (inactive) | > 100 µM (inactive) | > 100 µM (inactive) | > 100 µM (inactive) | > 100 µM (inactive) | > 100 µM (inactive) | > 100 µM (inactive) | > 100 µM (inactive) | – | > 100 µM (inactive) | – | – | – | –
4 | O=C1/C(=N\NC(=S)NC2CCCCC2)c2cc([N+](=O)[O-])ccc2N1CN1CCOCC1 | 0.382 µM (active) | 5.32 µM (inactive) | – | 5.93 µM (inactive) | 4.62 µM (inactive) | 11.3 µM (inactive) | 3.9 µM (inactive) | 11.3 µM (inactive) | 11.4 µM (inactive) | 10.9 µM (inactive) | 11.5 µM (inactive) | 6.25 µM (inactive) | 6.76 µM (inactive) | 10.5 µM (inactive) | 4.8 µM (inactive) | 3.13 µM (inactive) | 11 µM (inactive) | 4.06 µM (inactive) | 6.79 µM (inactive) | 3.26 µM (inactive)
